Where two headings read alike, the source gives them in different places.

In this assay the test system is Albino-Ratte. The assay is described as follows: Randall-Selitto test (analgesic effect, determination of synergism). Type of assay: in vivo. The conditions noted are these: per os; for Steigerung der analgetischen Wirksamkeit um den Faktor: ED50 alone versus ED50 in the combination, rat; for ED50: Rattus norvegicus, po. An excerpt:
Die erfindungsgemäße Komtination zeigt beispielsweise im Randall-Selitto-Test einen Synergismus der analgetischen Wirkung, die gegenüber der Analgesie des reinen Flupirtin (Das Fiupirt^in wird stets als Maleat, Gluconat oder Hydrochlorid untersucht.) und dem reinen 4-Acetamido-phenol überadditiv gesteigert ist.
Die Wirkung der erfindungsgemäßen Kombination geht beispielsweise aus folgenden Versuchen hervor: Diese Untersuchungen erfolgten im Randall-Selitto-Test an der Albino-Ratte. Hierbei wird sowohl die Flupirtin-Dosis (Hydrochlorid) konstant gehalten, als auch bei konstanter Dosis des 4-Acetamido-phenols die Flupirtin-. Dosis geändert und jeweils im ersten Fall die ED50 der analgetischen Wirkung des 4-Acetamido-phenols und im zweiten Fall die analgetische Hauptwirkung des Flupirtins in der Kombination bestimmt (Methode der Bestimmung des Synergismus nach Forth, Henschler und Rummel, Lehrbuch Pharmakologie und Toxikologie, Ausgabe 1980, Seite 65; Wissenschaftsverlag, Bibliographisches Institut Mannheim, Wien und Zürich).
So wird beispielsweise in dem vorstehend angegebenen Test die analgetisch wirksame ED50 des Flupirtins von 30,94 mg/kg per os auf 1,65 mg/kg und die analgetisch wirksame ED50 des 4-Acetamido-phenols (Paracetamol) von 71,47 mg/kg auf 0,6 mg/kg per os gesenkt. In diesem Test erfolgt also eine Steigerung der analgetischen Wirksamkeit des Flupirtins um den Faktor 18 und hinsichtlich der analgetischen Wirkung des Paracetamols um den Faktor 119.

As usually defined, the ED50 is the midpoint of the dose-response relation. On to `CCOC(=O)Nc1ccc(NCc2ccc(F)cc2)nc1N` [Flupirtin, 2-Amino-3-carbethoxyamino-6-(4-fluor-be-nzylamino)-pyridin], for which the “Steigerung der analgetischen Wirksamkeit um den Faktor” value is reported as 18. The ED50 (Flupirtin (hydrochloride) in combination with a constant dose of 4-Acetamido-phenol, read-out: analgetisch wirksame ED50 des Flupirtins) worked out at 1.65 mg/kg. Moreover, where the note is “Flupirtin alone (hydrochloride), read-out: analgetisch wirksame ED50 des Flupirtins”, the ED50 came out at 30.9 mg/kg.

With `CC(=O)Nc1ccc(O)cc1` [4-Acetamido-phenol], the “Steigerung der analgetischen Wirksamkeit um den Faktor” value is reported as 119. Besides, where the note is “4-Acetamido-phenol alone, read-out: analgetisch wirksame ED50 des 4-Acetamido-phenols (Paracetamol)”, the median effective dose (ED50) came out at 71.5 mg/kg. Besides, where the note is “4-Acetamido-phenol in combination with a constant dose of Flupirtin (hydrochloride), read-out: analgetisch wirksame ED50 des 4-Acetamido-phenols (Paracetamol)”, the ED50 came out at 0.6 mg/kg.

The record behind these values is patent EP0207193A2, “Synergetic combination of flupirtin and 4-acetamido-phenol” (Degussa Aktiengesellschaft, priority 1985, dated 1987).
